Values joined by “and” are separate entries in the source; they are usually repeats but may differ in a detail not shown here. Identical values can stand only once.
Test: Pharmacokinetics in humans, MRTX1133 formulation, oral, single and multiple doses
Type: in vivo
Conditions: for AUCExtrap, Geo Mean: geometric mean of subjects
Description: The pharmacokinetics [PK] of the MRTX1133 formulation after oral administration has been evaluated in 25 subjects across 3 escalating dose frequencies under fasting conditions (200 mg twice daily [BID], 400 mg BID, and 800 mg BID), as well as evaluation of 400 mg BID when administered with a low-fat meal (i.e., under fed conditions). The mean (+standard deviation) single-dose and multiple-dose pharmacokinetic profiles of the evaluated doses are presented in FIG. 9 and FIG. 10, respectively. Individual single- and multiple-dose PK profiles can be found in FIG. 11. For all figures, the X-axis represents nominal time of sample collection (hours [h]) and the Y-axis represents plasma concentration (ng/mL). Table 10 lists PK data following the oral administration of a single dose and multiple doses of MRTX1133 formulation by dose level and subject.

[1] = multiple oral doses of 800 mg BID, fasted, individual subjects 1-8
[2] = single oral dose of 200 mg, fasted, individual subjects
[3] = single oral dose of 400 mg with a low-fat meal, individual subjects
[4] = single oral dose of 400 mg, fasted, individual subjects
[5] = single oral dose of 800 mg, fasted, individual subjects 1-8

Tlast [1]: 12 h (7×) and 8 h | Tmax [1]: 6.0 h and 0.5 h (3×) | Plasma concentration (single oral dose of 200 mg, fasted, 0 h, individual subjects): BQL | Plasma concentration (single oral dose of 200 mg, fasted, 0.5 h, individual subjects): BQL | Plasma concentration (single oral dose of 200 mg, fasted, 48 h, individual subjects): BQL | Plasma concentration (single oral dose of 200 mg, fasted, 72 h, individual subjects): BQL | Plasma concentration (single oral dose of 200 mg, fasted, 96 h, individual subjects): BQL | AUCExtrap, Geo Mean (single oral dose of 200 mg, fasted): 7.4% | Tlast [2]: 24 h and 12 h (3×) and 12^a h | Plasma concentration (single oral dose of 400 mg with a low-fat meal, 0 h, individual subjects): BQL | Plasma concentration (single oral dose of 400 mg with a low-fat meal, 12 h, individual subjects): BQL | AUCExtrap, Geo Mean (single oral dose of 400 mg with a low-fat meal): 6.3% | Tlast [3]: 12 h (3×) and 8 h and 96 h | Tmax [3]: 5.0 h | Plasma concentration (single oral dose of 400 mg, fasted, 0 h, individual subjects): BQL | Plasma concentration (single oral dose of 400 mg, fasted, 0.5 h, individual subjects): BQL | AUCExtrap, Geo Mean (single oral dose of 400 mg, fasted): 7.6% | Tlast [4]: 96 h and 12 h (6×) | Tmax [4]: 0.5 h | Plasma concentration (single oral dose of 800 mg, fasted, 0 h, individual subjects): BQL | Plasma concentration (single oral dose of 800 mg, fasted, 48 h, individual subject): BQL | Plasma concentration (single oral dose of 800 mg, fasted, 72 h, individual subject): BQL | Plasma concentration (single oral dose of 800 mg, fasted, 96 h, individual subject): BQL | AUCExtrap (single oral dose of 800 mg, fasted, Geo Mean of subjects): 5.6% | Tlast [5]: 24 h (2×) and 12 h (6×) | Tmax [5]: 0.5 h and 12 h
Structure (SMILES): C#Cc1c(F)ccc2cc(O)cc(-c3ncc4c(N5C[C@H]6CC[C@@H](C5)N6)nc(OC[C@@]56CCCN5C[C@H](F)C6)nc4c3F)c12 [MRTX1133, 4-(4-((1R,5S)-3,8-diazabicyclo[3.2.1]octan-3-yl)-8-fluoro-2-(((2R,7aS)-2-fluorohexahydro-1Hpyrrolizin-7a-yl)methoxy)pyrido[4,3-d]pyrimidin-7-yl)-5-ethynyl-6-fluoronaphthalen-2-ol]
AUC0-12 [1]: 227 ng·h/mL and 509 ng·h/mL and 130 ng·h/mL and 744 ng·h/mL and 248 ng·h/mL and 820 ng·h/mL and 264 ng·h/mL | AUC0-12 Accumulation Ratio [1]: 0.79 and 0.20 and 0.71 and 4.46 and 1.87 and 1.41 and 1.05 | AUC0-last [1]: 227 ng · h/mL and 509 ng · h/mL and 130 ng · h/mL and 744 ng · h/mL and 248 ng · h/mL and 820 ng · h/mL and 4,458 ng · h/mL and 264 ng · h/mL | Cmax [1]: 38.2 ng/mL and 241 ng/mL and 34.4 ng/mL and 165 ng/mL and 29.8 ng/mL and 105 ng/mL and 812 ng/mL and 72.6 ng/mL | Cmax Accumulation Ratio [1]: 0.30 and 0.14 and 0.34 and 2.57 and 1.24 and 1.30 and 1.86 and 1.68 | Peak to Trough Ratio [1]: 15.0 and 12.5 and 17.1 and 13.8 and 2.81 and 2.88 and 10.4 and 20.0 | Plasma concentration (single oral dose of 200 mg, fasted, 1 h, individual subjects): 116 ng/mL and 6.88 ng/mL and 44.6 ng/mL (2×) and 9.39 ng/mL | Plasma concentration (single oral dose of 200 mg, fasted, 1.5 h, individual subjects): 49.8 ng/mL and 3.38 ng/mL and 57.9 ng/mL and 41.4 ng/mL and 42.7 ng/mL | Plasma concentration (single oral dose of 200 mg, fasted, 2 h, individual subjects): 20.4 ng/mL and 4.01 ng/mL and 26.7 ng/mL and 23.5 ng/mL and 122 ng/mL | AUC0-12 [2]: 140 ng·h/mL and 89.2 ng·h/mL and 98.1 ng·h/mL and 99.3 ng·h/mL and 585 ng·h/mL | AUC0-inf [2]: 157 ng · h/mL and 107 ng · h/mL (2×) and 103 ng · h/mL and 653 ng · h/mL | AUC0-last [2]: 152 ng·h/mL and 89.2 ng·h/mL and 98.1 ng·h/mL and 99.3 ng·h/mL and 585 ng·h/mL | AUCExtrap [2]: 3.42% and 16.3% and 4.88% and 7.77% and 10.4% | Cmax [2]: 116 ng/mL and 21.0 ng/mL and 57.9 ng/mL and 44.6 ng/mL and 122 ng/mL | Plasma concentration (single oral dose of 400 mg with a low-fat meal, 1 h, individual subjects): 77.0 ng/mL and 18.7 ng/mL and 28.2 ng/mL and 85.1 ng/mL and 24.7 ng/mL | Plasma concentration (single oral dose of 400 mg with a low-fat meal, 2 h, individual subjects): 83.2 ng/mL and 39.9 ng/mL and 6.47 ng/mL and 76.4 ng/mL and 12.0 ng/mL | Plasma concentration (single oral dose of 400 mg with a low-fat meal, 3 h, individual subjects): 71.5 ng/mL and 3.84 ng/mL and 85.8 ng/mL and 13.6 ng/mL | Plasma concentration (single oral dose of 400 mg with a low-fat meal, 4 h, individual subjects): 65.9 ng/mL and 93.9 ng/mL and 2.43 ng/mL and 99.8 ng/mL and 36.5 ng/mL | Plasma concentration (single oral dose of 400 mg with a low-fat meal, 5 h, individual subjects): 41.4 ng/mL (2×) and 1.41 ng/mL and 163 ng/mL and 22.5 ng/mL | Plasma concentration (single oral dose of 400 mg with a low-fat meal, 6 h, individual subjects): 59.5 ng/mL and 16.9 ng/mL and 1.02 ng/mL and 125 ng/mL and 15.5 ng/mL | AUC0-12 [3]: 564 ng·h/mL and 305 ng·h/mL and 42.6 ng·h/mL and 889 ng·h/mL and 169 ng·h/mL | AUC0-inf [3]: 651 ng · h/mL and 317 ng · h/mL and 43.2 ng · h/mL and 1,351 ng · h/mL and 200 ng · h/mL | AUC0-last [3]: 564 ng · h/mL and 305 ng · h/mL and 42.6 ng · h/mL and 1,307 ng · h/mL and 169 ng · h/mL | AUCExtrap [3]: 13.4% and 3.77% and 3.88% and 3.25% and 15.3% | Cmax [3]: 83.2 ng/mL and 93.9 ng/mL and 28.2 ng/mL and 163 ng/mL and 36.5 ng/mL | AUC0-inf [4]: 636 ng · h/mL and 98.4 ng · h/mL and 137 ng · h/mL and 169 ng · h/mL and 126 ng · h/mL and 1,950 ng · h/mL and 670 ng · h/mL | AUCExtrap [4]: 4.07% and 4.18% and 6.90% and 10.7% and 6.70% and 13.0% and 13.4% | Cmax [4]: 62.1 ng/mL and 62.0 ng/mL and 66.3 ng/mL and 71.0 ng/mL and 37.0 ng/mL and 281 ng/mL and 188 ng/mL | AUC0-12 [5]: 287 ng · h/mL and 2,573 ng · h/mL and 182 ng · h/mL and 167 ng · h/mL and 133 ng · h/mL and 583 ng · h/mL and 3,221 ng · h/mL and 251 ng · h/mL | AUC0-inf [5]: 317 ng · h/mL and 2,665 ng · h/mL and 185 ng · h/mL and 181 ng · h/mL and 141 ng · h/mL and 708 ng · h/mL and 4,902 ng · h/mL | AUC0-last [5]: 315 ng · h/mL and 2,573 ng · h/mL and 182 ng · h/mL and 167 ng · h/mL and 133 ng · h/mL and 583 ng · h/mL and 4,421 ng · h/mL and 251 ng · h/mL | AUCExtrap [5]: 4.05% and 3.44% and 1.58% and 8.08% and 5.77% and 17.7% and 9.81% | Cmax [5]: 129 ng/mL and 1,760 ng/mL and 101 ng/mL and 64.3 ng/mL and 24.0 ng/mL and 80.5 ng/mL and 437 ng/mL and 43.3 ng/mL

From US20250120981A1, “MRTX1133 PHARMACEUTICAL COMPOSITIONS” (MIRATI THERAPEUTICS, INC., priority 2023, published 2025)
